Experimental findings from the OligoGym collection are described below.

Oligonucleotides are given in HELM: sugar(base)linkage, 5' to 3'; d 2'-deoxyribose, r ribose, m 2'-O-methylribose, p phosphate. ss, as = sense and antisense strand

The data set has as its target Cacnb1 (rat). The experiment in a line: reporter assay of Huesken 2005. The following applies: siRNA. On the technique in general: In a reporter assay the amount or activity of a reporter protein is the signal.
Note: test concentration or dose not given here.

As for “RNA1{r(C)p.r(U)p.r(A)p.r(U)p.r(C)p.r(C)p.r(C)p.r(G)p.r(C)p.r(C)p.r(A)p.r(A)p.r(G)p.r(A)p.r(C)p.r(A)p.r(C)p.r(C)p.r(U)p.d(T)p.d(T)}|RNA2{r(A)p.r(G)p.r(G)p.r(U)p.r(G)p.r(U)p.r(C)p.r(U)p.r(U)p.r(G)p.r(G)p.r(C)p.r(G)p.r(G)p.r(G)p.r(A)p.r(U)p.r(A)p.r(G)p.d(C)p.d(G)}$$$RNA1{StrandType:ss}|RNA2{StrandType:as}$”, the normalised inhibition (eCFP-eYFP dual reporter) worked out at 70.7%.
The result for “RNA1{r(C)p.r(U)p.r(G)p.r(G)p.r(U)p.r(G)p.r(G)p.r(A)p.r(U)p.r(C)p.r(G)p.r(G)p.r(G)p.r(A)p.r(G)p.r(G)p.r(C)p.r(U)p.r(G)p.d(T)p.d(T)}|RNA2{r(C)p.r(A)p.r(G)p.r(C)p.r(C)p.r(U)p.r(C)p.r(C)p.r(C)p.r(G)p.r(A)p.r(U)p.r(C)p.r(C)p.r(A)p.r(C)p.r(C)p.r(A)p.r(G)p.d(T)p.d(C)}$$$RNA1{StrandType:ss}|RNA2{StrandType:as}$” reads 40.7%.
For “RNA1{r(G)p.r(C)p.r(C)p.r(C)p.r(A)p.r(C)p.r(A)p.r(G)p.r(G)p.r(G)p.r(C)p.r(A)p.r(A)p.r(A)p.r(U)p.r(A)p.r(C)p.r(A)p.r(G)p.d(T)p.d(T)}|RNA2{r(C)p.r(U)p.r(G)p.r(U)p.r(A)p.r(U)p.r(U)p.r(U)p.r(G)p.r(C)p.r(C)p.r(C)p.r(U)p.r(G)p.r(U)p.r(G)p.r(G)p.r(G)p.r(C)p.d(T)p.d(G)}$$$RNA1{StrandType:ss}|RNA2{StrandType:as}$” the value was 75.8%; for “RNA1{r(C)p.r(A)p.r(G)p.r(G)p.r(A)p.r(G)p.r(A)p.r(U)p.r(G)p.r(A)p.r(G)p.r(G)p.r(U)p.r(G)p.r(C)p.r(C)p.r(A)p.r(G)p.r(U)p.d(T)p.d(T)}|RNA2{r(A)p.r(C)p.r(U)p.r(G)p.r(G)p.r(C)p.r(A)p.r(C)p.r(C)p.r(U)p.r(C)p.r(A)p.r(U)p.r(C)p.r(U)p.r(C)p.r(C)p.r(U)p.r(G)p.d(G)p.d(A)}$$$RNA1{StrandType:ss}|RNA2{StrandType:as}$”, 83.4%.
The result for “RNA1{r(G)p.r(G)p.r(G)p.r(G)p.r(A)p.r(G)p.r(C)p.r(U)p.r(G)p.r(G)p.r(G)p.r(C)p.r(C)p.r(A)p.r(G)p.r(C)p.r(C)p.r(C)p.r(C)p.d(T)p.d(T)}|RNA2{r(G)p.r(G)p.r(G)p.r(G)p.r(C)p.r(U)p.r(G)p.r(G)p.r(C)p.r(C)p.r(C)p.r(A)p.r(G)p.r(C)p.r(U)p.r(C)p.r(C)p.r(C)p.r(C)p.d(G)p.d(G)}$$$RNA1{StrandType:ss}|RNA2{StrandType:as}$” reads 19.2%; that for “RNA1{r(C)p.r(C)p.r(C)p.r(G)p.r(C)p.r(C)p.r(A)p.r(A)p.r(G)p.r(A)p.r(C)p.r(A)p.r(C)p.r(C)p.r(U)p.r(U)p.r(U)p.r(G)p.r(A)p.d(T)p.d(T)}|RNA2{r(U)p.r(C)p.r(A)p.r(A)p.r(A)p.r(G)p.r(G)p.r(U)p.r(G)p.r(U)p.r(C)p.r(U)p.r(U)p.r(G)p.r(G)p.r(C)p.r(G)p.r(G)p.r(G)p.d(A)p.d(T)}$$$RNA1{StrandType:ss}|RNA2{StrandType:as}$”, 57.6%; that for “RNA1{r(C)p.r(C)p.r(A)p.r(A)p.r(G)p.r(G)p.r(A)p.r(C)p.r(U)p.r(U)p.r(C)p.r(C)p.r(U)p.r(G)p.r(C)p.r(A)p.r(C)p.r(A)p.r(U)p.d(T)p.d(T)}|RNA2{r(A)p.r(U)p.r(G)p.r(U)p.r(G)p.r(C)p.r(A)p.r(G)p.r(G)p.r(A)p.r(A)p.r(G)p.r(U)p.r(C)p.r(C)p.r(U)p.r(U)p.r(G)p.r(G)p.d(G)p.d(C)}$$$RNA1{StrandType:ss}|RNA2{StrandType:as}$”, 63.2%.
“RNA1{r(U)p.r(U)p.r(U)p.r(C)p.r(A)p.r(U)p.r(C)p.r(C)p.r(C)p.r(C)p.r(A)p.r(G)p.r(C)p.r(C)p.r(C)p.r(U)p.r(G)p.r(U)p.r(C)p.d(T)p.d(T)}|RNA2{r(G)p.r(A)p.r(C)p.r(A)p.r(G)p.r(G)p.r(G)p.r(C)p.r(U)p.r(G)p.r(G)p.r(G)p.r(G)p.r(A)p.r(U)p.r(G)p.r(A)p.r(A)p.r(A)p.d(C)p.d(C)}$$$RNA1{StrandType:ss}|RNA2{StrandType:as}$” yielded a normalised inhibition (eCFP-eYFP dual reporter) of 16.4%.
